{"source": "patent US20240350578A1", "about": "“FUNCTIONAL OUTCOMES AFTER SPINAL CORD INJURY” (priority 2023, published 2024)", "key": {"mixed neuronal culture": {"test_system": "mixed neuronal culture", "assay": "Neuronal LDH release from a mixed neuronal culture following incubation with NMDA", "format": "cell-based", "settings": "peptide at 1 μM; mixed neuronal culture incubated with NMDA", "source_text": "(§1) Despite the neuroprotective effectiveness of early generation apoE-mimetic peptides based on the primary structure of the apoE receptor-binding region, several factors have limited clinical translation. Among those factors are peptide size and production cost. In order to address these barriers, we developed a library of smaller, 5-amino acid peptides by linearizing the polar face of the receptor-binding region, which preserves peptide function without maintaining any primary sequence homology with the apoE receptor-binding region itself. Overall, 13 peptides were screened using in vitro assays of neuroinflammation and neuroprotection from excitotoxicity. […] The resulting smaller, 5-amino acid peptide increases the translational and therapeutic potential by reducing production cost, improving pharmacokinetics, and increasing CNS bioavailability. A comparison of the neuroprotective activity of CN-105 with VR-53, another pentapeptide from this library, as measured by LPS-induced inflammation from TNFα is shown in FIG. 1."}, "[1]": {"assay": "Pharmacokinetic evaluation of radiolabeled CN-105 in uninjured male CD-1 mice", "format": "in vivo", "settings": "single intravenous bolus 1.98 mg/kg", "procedure": "FIG. 2, panel A is a graph showing the concentration of CN-105 in uninjured, male CD-1 mice after a single intravenous injection bolus dose of 1.98 mg/kg. FIG. 2, panel B is a graph showing the CN-105 retention in the brain and the spinal cord, calculated by dividing the concentration at 24 hours (C24) by the peak concentration (Cmax), 24 hours after a single intravenous injection bolus dose of 1.98 mg/kg. FIG. 2, panel C is a graph showing the total CN-105 exposure in the brain and the spinal cord, calculated using the area under the curve (AUC), for 48 hours after a single intravenous injection bolus dose of 1.98 mg/kg.\nIn collaboration with XenoBiotic Laboratories, Inc., we conducted a pharmacokinetic evaluation of radiolabled CN-105 in uninjured, male CD-1 mice. After a single intravenous bolus dose of CN-105 (1.98 mg/kg), peak concentration of CN-105 in the spinal cord occurred 30 minutes post injection (FIG. 2, panel A).\nHowever, tissue retention of CN-105 at 24 hours (FIG. 2, panel B) and total exposure (FIG. 2, panel C) to CN-105 over 48 hours post injection was greatest in the spinal cord. Tissue retention at 24 hours post injection was quantified by dividing the CN-105 concentration at 24 hours (C24) by the peak CN-105 concentration (Cmax) and multiplying by 100.\nThe total exposure to CN-105 was calculated using the area under the curve (AUC) from the time of injection to 48 hours post injection (AUC0-48) and is expressed in nanogram equivalents*hour per gram. […] Increased CN-105 access to the spinal cord is consistent with greater passive permeability in the intact spinal cord (Winkler et al., 2012)."}, "[2]": {"test_system": "spinal cord transection in female Sprague-Dawley rats", "assay": "Spinal cord transection T9/T10: acute cystometry and body weight", "format": "in vivo", "procedure": "FIG. 5, panel A is a graph showing the number of non-voiding bladder contractions during acute cystometry in urethane-anesthetized, female Sprague-Dawley rats that received spinal cord transection between the 9th and 10th thoracic vertebrae, followed by CN-105 (2 mg/kg; sci_cn105) or 0.9% saline (sci_saline) treatments at 30 minutes and 3 hours post injury by IV injection, and then every 24 hours by IP for 7 days.\nFIG. 5, panel B is a graph showing the bladder capacity measured from a single-fill cystometric trial in urethane-anesthetized, female Sprague-Dawley rats that received spinal cord transection between the 9th and 10th thoracic vertebrae. Three baseline measurements were taken, and then three measurements were taken after administration of CN-105 (2 mg/kg; cn105).\nWe conducted terminal acute experiments in urethane-anesthetized, female Sprague-Dawley rats to quantify the chronic and acute effects of CN-105 on urodynamic function. Rats (n=6) received spinal cord transection (TX) at T9/T10 followed by CN-105 (2.0 mg/kg) or 0.9% saline treatment at 30 min and 3 hours (IV), then every 24 hours (IP) for 7 days post-injury. Collection of body weight and void volumes occurred 2-3 times daily during manual bladder expression throughout the duration of the study. For acute cystometry experiments, we placed a catheter into the bladder dome to measure pressure and an electromyography paddle on the EUS to measure muscle activity. During a single-fill cystometric trial, we infused the bladder with saline at a constant rate (54-84 ml/hr) until a distension-evoked bladder contraction voided urine or until overflow incontinence occurred. Following 3 baseline cystometric trials, we performed 3 trials after administration of CN-105."}, "[3]": {"test_system": "moderate, contusive SCI in adult, female C57BL/6J mice", "assay": "Moderate, contusive SCI at T9: Basso Mouse Scale and von Frey hair test", "format": "in vivo", "procedure": "FIG. 3 are graphs showing the locomotor performance recovery (via Basso Mouse Scale) in adult, female C57BL/6J mice after a moderate, incomplete SCI at the 9th thoracic vertebrae. The mice were subsequently treated with either 2.0 mg/kg CN-105 or a control vehicle intravenously 30 minutes post-injury, and then intraperitoneally (IP) at 3 hours, 6 hours, and then every 24 hours post-injury for three days. FIG. 3, panel A is a graph showing the number of consistent, weight-supported hindlimb steps at 21-days post-injury; and FIG. 3, panel B is a graph showing the number of animals capable of performing coordinated locomotion at 21-days post-injury.\nTo determine whether CN-105 can improve sensorimotor outcomes following a moderate, incomplete SCI, we conducted experiments in adult, female C57BL/6J mice. Here, we delivered CN-105 (2.0 mg/kg) or Vehicle at 30 minutes (intravenous, IV), at 3 hours and 6 hours (intraperitoneal, IP), then every 24 hours (IP) for three days following a moderate, contusive SCI at the level of the 9th thoracic vertebrae (T9). We tracked locomotor recovery using the Basso Mouse Scale (BMS) (Basso et al., 2006) and assessed for neuropathic pain or allodynia using the von Frey hair test."}, "severe, contusive SCI": {"test_system": "severe, contusive SCI", "assay": "Severe, contusive SCI: GFAP staining at injury epicenter", "format": "in vivo, mouse", "settings": "0.05 mg/kg before and after SCI; 14 days after severe SCI", "procedure": "FIG. 4 is a series of microscopy images showing the spinal cord sections at the injury epicenter stained for glial fibrillary acidic protein (GFAP) in a mouse after a severe SCI.\nIn a separate experiment, we delivered CN-105 (0.05 mg/kg) before and after SCI. To determine the effect of CN-105 treatment on neuropathology 14 days after severe SCI, we stained spinal cord sections at the injury epicenter for glial fibrillary acidic protein (GFAP; FIG. 4), which labels astrocytes, including those that form the glial scar around the injury. In this approach, spared tissue can be differentiated from the lesion core by the presence (spared tissue) or absence (lesion core) of GFAP staining (Duncan et al., 2018)."}, "[4]": {"target": "α7 nicotinic acetylcholine receptors (Homo sapiens, UniProt P36544)", "sequence (P36544 23-502)": "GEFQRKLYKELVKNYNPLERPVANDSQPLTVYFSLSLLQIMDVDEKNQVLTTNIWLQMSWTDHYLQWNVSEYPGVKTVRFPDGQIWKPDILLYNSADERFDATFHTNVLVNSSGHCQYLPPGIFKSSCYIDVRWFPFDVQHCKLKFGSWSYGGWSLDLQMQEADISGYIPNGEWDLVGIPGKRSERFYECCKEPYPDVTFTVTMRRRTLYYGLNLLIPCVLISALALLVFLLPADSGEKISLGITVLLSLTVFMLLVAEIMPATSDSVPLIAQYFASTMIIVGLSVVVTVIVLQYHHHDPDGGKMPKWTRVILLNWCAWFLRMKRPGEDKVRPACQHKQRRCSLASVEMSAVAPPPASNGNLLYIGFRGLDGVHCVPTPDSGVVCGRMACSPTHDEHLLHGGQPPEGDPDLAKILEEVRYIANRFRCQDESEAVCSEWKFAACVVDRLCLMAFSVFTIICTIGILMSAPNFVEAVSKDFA", "settings": "cited from earlier work"}, "mixed glial culture": {"test_system": "mixed glial culture", "assay": "LPS-induced TNFα release from mixed glia cells in vitro", "format": "cell-based", "source_text": "FIG. 1 is a graph showing the LPS-induced TNFα release from mixed glia cells in vitro from treatments with the CN-105 peptide and a comparison pentapeptide, VR-53.\nas §1"}, "acquired brain injury": {"test_system": "acquired brain injury", "settings": "in vivo; cited from earlier work"}, "[5]": {"settings": "SCI rats, 2.0 mg/kg chronic treatment, cystometry"}}}
{"substance": "Ac-ASHLRKLRKRLL-NH2 [AL-10-1]", "values": [{"measurement": "Neuroprotection (reduction in neuronal LDH release)", "setting": "mixed neuronal culture", "result": "−6.21", "unit": "%"}]}
{"substance": "Ac-RARRL-NH2 [RL-S-2]", "values": [{"measurement": "Neuroprotection (reduction in neuronal LDH release)", "setting": "mixed neuronal culture", "result": "−5.23", "unit": "%"}]}
{"substance": "Ac-RHKKL-NH2 [RL-S-1]", "values": [{"measurement": "Neuroprotection (reduction in neuronal LDH release)", "setting": "mixed neuronal culture", "result": "−2.85", "unit": "%"}]}
{"substance": "Ac-RHKRR-NH2 [RR-S-1]", "values": [{"measurement": "Neuroprotection (reduction in neuronal LDH release)", "setting": "mixed neuronal culture", "result": 7.5, "unit": "%"}]}
{"substance": "Ac-RSKKL-NH2 [RL-S-3]", "values": [{"measurement": "Neuroprotection (reduction in neuronal LDH release)", "setting": "mixed neuronal culture", "result": "−20.80", "unit": "%"}]}
{"substance": "Ac-RSKRR-NH2 [RR-S-2]", "values": [{"measurement": "Neuroprotection (reduction in neuronal LDH release)", "setting": "mixed neuronal culture", "result": 0.08, "unit": "%"}]}
{"substance": "Ac-VARKL-NH2 [VL-S-1]", "values": [{"measurement": "Neuroprotection (reduction in neuronal LDH release)", "setting": "mixed neuronal culture", "result": 24.48, "unit": "%"}]}
{"substance": "Ac-VARRL-NH2 [VL-S-3]", "values": [{"measurement": "Neuroprotection (reduction in neuronal LDH release)", "setting": "mixed neuronal culture", "result": 11.50, "unit": "%"}]}
{"substance": "Ac-VSKKR-NH2 [VR-54]", "values": [{"measurement": "Neuroprotection (reduction in neuronal LDH release)", "setting": "mixed neuronal culture", "result": "−15.91", "unit": "%"}]}
{"substance": "Ac-VSKRR-NH2 [VR-53]", "values": [{"measurement": "Neuroprotection (reduction in neuronal LDH release)", "setting": "mixed neuronal culture", "result": 7.03, "unit": "%"}]}
{"substance": "Ac-VSRKR-NH2 [VR-52]", "values": [{"measurement": "Neuroprotection (reduction in neuronal LDH release)", "setting": "mixed neuronal culture", "result": 12.63, "unit": "%"}]}
{"substance": "Ac-VSRRR-NH2 [CN-105]", "values": [{"measurement": "Total exposure (AUC0-48), spinal cord vs brain", "setting": "[1]; 0-48 hours", "result": "spinal cord had greater total exposure to CN-105 than the brain"}, {"measurement": "Tissue retention at 24 hours (C24/Cmax x 100), spinal cord vs brain", "setting": "[1]; 24 hours post injection", "result": "spinal cord retained a higher percentage of CN-105 than the brain"}, {"measurement": "Time of peak concentration in the spinal cord", "setting": "[1]; spinal cord", "result": 30, "unit": "min"}, {"measurement": "Post-injury weight loss", "setting": "[2]; 2.0 mg/kg IV 30 min and 3 h, then IP every 24 h for 7 days", "result": "prevented post-injury weight loss"}, {"measurement": "Bladder capacity (BC)", "setting": "[2]; [5]", "result": "11.83 ± 2.00", "unit": "mL"}, {"measurement": "Non-voiding contractions (NVCs)", "setting": "[2]; [5]", "result": "8.0±2.48"}, {"measurement": "Voiding efficiency (VE)", "setting": "[2]; [5]", "result": "3.31±1.83", "unit": "%"}, {"measurement": "Bladder capacity after acute dosing", "setting": "[2]; acute dosing 2 mg/kg in chronically treated rats, p<0.05", "result": "may decrease bladder capacities"}, {"measurement": "Neurogenic detrusor overactivity (NDO), post-hoc analysis", "setting": "[2]; extended treatment, p<0.05", "result": "may decrease NDO"}, {"measurement": "Sensory function / allodynia (von Frey hair test)", "setting": "[3]; 2.0 mg/kg", "result": "trend toward improved sensory function"}, {"measurement": "Animals capable of consistently taking weight-supported steps (BMS)", "setting": "[3]; 2.0 mg/kg IV 30 min, IP 3 h, 6 h, then every 24 h for three days, 21 days after injury, p<0.05", "result": "significantly more animals"}, {"measurement": "Animals performing coordinated locomotion (BMS)", "setting": "[3]; 2.0 mg/kg, 21 days after injury, p<0.05", "result": "significantly more animals"}, {"measurement": "Lesion size and tissue damage (GFAP staining)", "setting": "severe, contusive SCI", "result": "appeared to reduce the lesion size and tissue damage"}, {"measurement": "Binding to α7 nicotinic acetylcholine receptors", "setting": "[4]", "result": "binds"}, {"measurement": "Suppression of LPS-induced inflammation (TNFα)", "setting": "mixed glial culture", "result": "suppress LPS-induced inflammation"}, {"measurement": "Brain exposure relative to previous peptides", "setting": "acquired brain injury", "result": "up to five times higher than previous peptides"}, {"measurement": "Histological and behavioral outcomes following acquired brain injury", "setting": "acquired brain injury", "result": "improves both histological and behavioral outcomes"}, {"measurement": "Neuroprotection (reduction in neuronal LDH release)", "setting": "mixed neuronal culture", "result": 19.14, "unit": "%"}]}
